According to patent US9045466B2, “Amidine compound or salt thereof” (priority 2011, dated 2015):
Converted amounts (≈) assume the structure as drawn. Counter-ions that a name gives are not always drawn. Like-named read-outs stand apart in the source and are kept apart here.

Experiments:
Experiment in all cases: Fungal susceptibility test, broth microdilution method (MIC)
Format in all cases: cell-based
[1] = system: Trichophyton rubrum NBRC 5467; conditions: NBRC5467, 96 h
Procedure: (§1) The fungal susceptibility tests on test substances were conducted by the broth microdilution method equivalent to Clinical and Laboratory Standards Institute method. The medium used in the susceptibility tests was RPMI1640 adjusted to pH 7.0 with 0.165 mol/L morpholinepropanesulfonic acid (MOPS) and 50% sodium hydroxide (RPMI/MOPS). Each test substance was dissolved in DMSO and serially diluted in 2-fold increments with DMSO on a 96-well microplate. Then, the dilutions were dispensed by 1 μL to a 96-well microplate. Candida albicans TIMM 1623 cultured overnight at 35° C. in Sabouraud's agar medium was suspended in sterile saline. The number of cells was counted under a biological microscope, and the fungal suspension was diluted with RPMI/MOPS to prepare the inoculum solution (approximately 1×10^3 cells/mL). Alternatively, Candida albicans TIMM 1623 stored at −80° C. was diluted with RPMI/MOPS to prepare the inoculum solution (approximately 1×10^3 CFU/mL). Aspergillus fumigatus TIMM 0063 stored at 5° C. was diluted with RPMI/MOPS to prepare the inoculum solution (approximately 1×10^4 CFU/mL). Trichophyton rubrum NBRC 5467 stored at 5° C. or −80° C. was diluted with RPMI/MOPS to prepare the inoculum solution (approximately 2×10^3 CFU/mL). The 199 μL of inoculum solution was dispensed to each well to prepare the microplate containing the designated concentrations of test substance, medium and fungal cells. Candida albicans and Aspergillus fumigatus were cultured at 35° C. for 2 days. Trichophyton rubrum was cultured at 35° C. for 4 days. After the completion of culture, MIC was determined by visual observation. The MICs of Candida albicans and Aspergillus fumigatus were set to the lowest concentration at which approximately 50% growth inhibition was seen, when compared with a growth control without the addition of the test substance. The MIC of Trichophyton rubrum was set to the lowest concentration at which approximately 80% growth inhibition was seen, when compared with a growth control without the addition of the test substance.

[2] = system: Candida albicans TIMM 1623; conditions: TIMM1623, 48 h
Procedure: as §1

[3] = system: Aspergillus fumigatus TIMM 0063; conditions: TIMM0063, 48 h
Procedure: as §1

[4] = pH 7, read-out: MIC (μg/mL) T. rubrum NBRC5467
[5] = pH 7, read-out: MIC (μg/mL) C. albicans TIMM1623
[6] = RPMI/MOPS pH 7.0, 35° C. for 2 days, visual, lowest concentration with approximately 50% growth inhibition, read-out: MIC (μg/mL) A. fumigatus TIMM 0063
[7] = RPMI/MOPS pH 7.0, 35° C. for 2 days, visual, lowest concentration with approximately 50% growth inhibition, read-out: MIC (μg/mL) C. albicans TIMM1623
[8] = RPMI/MOPS pH 7.0, 35° C. for 4 days, visual, lowest concentration with approximately 80% growth inhibition, read-out: MIC (μg/mL) T. rubrum NBRC5467
[9] = pH 7, read-out: MIC (μg/mL) A. fumigatus TIMM 0063

With `CCN(C)/C=N/c1cc(C)c(Cc2nc(-c3cscn3)cs2)cc1C` [Example 48, N′-[4-(4,4′-Bi-1,3-thiazol-2-ylmethyl)-2,5-dimethylphenyl]-N-ethyl-N-methylimidoformamide hydrochloride] as the compound, how does the MIC [1, 4] read?
Its MIC is 0.0078 µg/mL.

And the MIC [2, 5]?
Its MIC is 0.0625 µg/mL.

How did the MIC [3, 6] turn out when `CCN(C)/C=N/c1cc(C)c(Cc2nc(C(=O)c3ccc(Cl)cc3)cs2)cc1C` [Example 27, N′-[4-({4-[(4-Chlorophenyl)carbonyl]-1,3-thiazol-2-yl}methyl)-2,5-dimethylphenyl]-N-ethyl-N-methylimidoformamide hydrobromide] was run?
The MIC was 0.0625 µg/mL.

And the MIC [2, 7]?
The MIC was 0.0625 µg/mL.

For `CCN(C)/C=N/c1cc(C)c(Cc2nc(-c3ccc(C)cc3)ns2)cc1C` [Example 16, N′-(2,5-Dimethyl-4-{[3-(4-methylphenyl)-1,2,4-thiadiazol-5-yl]methyl}phenyl)-N-ethyl-N-methylimidoformamide], which MIC [1, 8] is on record?
The MIC was 0.002 µg/mL (≈ 0.00528 µM).

What about the MIC [3, 6] of the same compound?
The MIC was 0.0313 µg/mL (≈ 0.0827 µM).

What about the MIC [2, 7] of the same compound?
Its MIC is 0.0313 µg/mL (≈ 0.0827 µM).

Which MIC [1, 4] does the source give for `CCN(C)/C=N/c1cc(C)c(Cc2nc(-c3ccc(C)cc3)cs2)cc1C` [Example 3, N′-(2,5-Dimethyl-4-{[4-(4-methylphenyl)-1,3-thiazol-2-yl]methyl}phenyl)-N-ethyl-N-methylimidoformamide dihydrochloride] here?
Its MIC is 0.0005 µg/mL.

What about the MIC [3, 9] of the same compound?
The MIC was 0.0156 µg/mL.

What about the MIC [2, 5] of the same compound?
Its MIC is 0.0156 µg/mL.

`CCN(C)/C=N/c1cc(C)c(Cc2nc(-c3cnc(OC)cn3)cs2)cc1C` [Example 26, N-Ethyl-N′-(4-{[4-(5-methoxypyrazin-2-yl)-1,3-thiazol-2-yl]methyl}-2,5-dimethylphenyl)-N-methylimidoformamide hydrobromide] was tested. Which MIC [3, 6] did it give?
Its MIC is 0.0625 µg/mL.

What about the MIC [2, 7] of the same compound?
Its MIC is 0.0625 µg/mL.

For `CCN(C)/C=N/c1cc(C)c(Cc2nc(-c3cnc(C(C)(C)C(F)(F)F)cn3)cs2)cc1C` [Example 4, N′-[2,5-Dimethyl-4-({4-[5-(1,1,1-trifluoro-2-methylpropan-2-yl)pyrazin-2-yl]-1,3-thiazol-2-yl}methyl)phenyl]-N-ethyl-N-methylimidoformamide hydrochloride], which MIC [1, 4] is on record?
The MIC was 0.002 µg/mL.

What about the MIC [2, 5] of the same compound?
The MIC was 0.0313 µg/mL.

`CCN(C)/C=N/c1cc(C)c(Cc2nc(COc3ccc(C)cc3)cs2)cc1C` [Example 60, N′-[2,5-Dimethyl-4-({4-[(4-methylphenoxy)methyl]-1,3-thiazol-2-yl}methyl)phenyl]-N-ethyl-N-methylimidoformamide] was tested. Which MIC [1, 8] did it give?
The MIC was 0.001 µg/mL (≈ 0.00245 µM).

What about the MIC [2, 7] of the same compound?
Its MIC is 0.0156 µg/mL (≈ 0.0383 µM).

`CCN(C)/C=N/c1cc(C)c(Cc2nc(C(=O)c3ccc(C(F)(F)F)cc3)cs2)cc1C` [Example 36, N′-{2,5-Dimethyl-4-[(4-{[4-(trifluoromethyl)phenyl]carbonyl}-1,3-thiazol-2-yl)methyl]phenyl}-N-ethyl-N-methylimidoformamide hydrobromide] was tested. Which MIC [2, 7] did it give?
Its MIC is 0.0313 µg/mL.

Which results are given for `CCN(C)/C=N/c1cc(C)c(Cc2nc(C(C)(C)C)cs2)cc1C` [Example 29, N′-{4-[(4-Tert-butyl-1,3-thiazol-2-yl)methyl]-2,5-dimethylphenyl}-N-ethyl-N-methylimidoformamide dihydrochloride]?
MIC [1, 4]: 0.0039 µg/mL; MIC [2, 5]: 0.0625 µg/mL

What does the source list for `Cc1ccc(-c2csc(Cc3cc(C)c(/N=C/N4CCCC4)cc3C)n2)cc1` [Example 1, 2,5-Dimethyl-4-{[4-(4-methylphenyl)-1,3-thiazol-2-yl]methyl}-N-[(E)-pyrrolidin-1-ylmethylidene]aniline]?
MIC [1, 8]: 0.0039 µg/mL (≈ 0.01 µM); MIC [3, 6]: 0.0625 µg/mL (≈ 0.16 µM)

`CCN(C)/C=N/c1cc(C)c(Cc2nc(-c3cc(F)c(C)cc3F)cs2)cc1C` [Example 58, N′-(4-{[4-(2,5-Difluoro-4-methylphenyl)-1,3-thiazol-2-yl]methyl}-2,5-dimethylphenyl)-N-ethyl-N-methylimidoformamide hydrobromide] was tested. Which MIC [1, 8] did it give?
The MIC was 0.001 µg/mL.

And the MIC [3, 6]?
The MIC was 0.0625 µg/mL.

And the MIC [2, 7]?
The MIC was 0.0156 µg/mL.

How did the MIC [2, 7] turn out when `CCN(C)/C=N/c1cc(C)c(Cc2nc(-c3ccc(C(=O)N(C)CC)cc3)cs2)cc1C` [Example 42, N-Ethyl-4-{2-[4-({(E)-[ethyl(methyl)amino]methylidene}amino)-2,5-dimethylbenzyl]-1,3-thiazol-4-yl}-N-methylbenzamide] was run?
Its MIC is 0.0625 µg/mL (≈ 0.139 µM).

For `CCN(C)/C=N/c1cc(C)c(Cc2nc(-c3ccc(C)cc3F)cs2)cc1C` [Example 59, N-Ethyl-N′-(4-{[4-(2-fluoro-4-methylphenyl)-1,3-thiazol-2-yl]methyl}-2,5-dimethylphenyl)-N-methylimidoformamide dihydrochloride], which MIC [1, 4] is on record?
Its MIC is 0.0005 µg/mL.

What about the MIC [3, 9] of the same compound?
The MIC was 0.0313 µg/mL.

What about the MIC [2, 5] of the same compound?
Its MIC is 0.0156 µg/mL.

What does the source list for `CCN(C)/C=N/c1cc(C)c(Cc2nc(-c3ccc(C(=O)NC(C)(C)C)cc3)cs2)cc1C` [Example 24, N-Tert-butyl-4-{2-[4-({(E)-[ethyl(methyl)amino]methylidene}amino)-2,5-dimethylbenzyl]-1,3-thiazol-4-yl}benzamide dihydrochloride]?
MIC [1, 4]: 0.0039 µg/mL; MIC [2, 5]: 0.0313 µg/mL

Which results are given for `CCN(C)/C=N/c1cc(C)c(Cc2nc(-c3ncc(C(C)(C)C)s3)cs2)cc1C` [Example 20, N′-{4-[(5-Tert-butyl-2,4′-bi-1,3-thiazol-2′-yl)methyl]-2,5-dimethylphenyl}-N-ethyl-N-methylimidoformamide dihydrochloride]?
MIC [1, 4]: 0.002 µg/mL; MIC [2, 5]: 0.0313 µg/mL

For `CCN(C)/C=N/c1cc(C)c(Cc2nc(-c3ccc(Cl)cc3)cs2)cc1C` [Example 49, N′-(4-{[4-(4-Chlorophenyl)-1,3-thiazol-2-yl]methyl}-2,5-dimethylphenyl)-N-ethyl-N-methylimidoformamide hydrochloride], which MIC [3, 9] is on record?
Its MIC is 0.0625 µg/mL.

What about the MIC [2, 5] of the same compound?
Its MIC is 0.0156 µg/mL.

With `CCN(C)/C=N/c1cc(C)c(Cc2nc(-c3ccc(C(C)(C)C)cc3)cs2)cc1C` [Example 17, N′-(4-{[4-(4-Tert-butylphenyl)-1,3-thiazol-2-yl]methyl}-2,5-dimethylphenyl)-N-ethyl-N-methylimidoformamide dihydrochloride] as the compound, how does the MIC [1, 4] read?
The MIC was 0.002 µg/mL.

And the MIC [2, 5]?
Its MIC is 0.0313 µg/mL.

How did the MIC [1, 8] turn out when `CCN(C)/C=N/c1cc(C)c(Cc2nc(-c3ccc(C(=O)NC(C)C)cc3)cs2)cc1C` [Example 98, 4-{2-[4-({(E)-[Ethyl(methyl)amino]methylidene}amino)-2,5-dimethylbenzyl]-1,3-thiazol-4-yl}-N-(propan-2-yl)benzamide] was run?
The MIC was 0.0156 µg/mL (≈ 0.0348 µM).

`CCN(C)/C=N/c1cc(C)c(Cc2nc(-c3ccc(C(=O)NCC(C)(C)C)cc3)cs2)cc1C` [Example 99, N-(2,2-Dimethylpropyl)-4-{2-[4-({(E)-[ethyl(methyl)amino]methylidene}amino)-2,5-dimethylbenzyl]-1,3-thiazol-4-yl}benzamide] was tested. Which MIC [2, 7] did it give?
Its MIC is 0.0625 µg/mL (≈ 0.131 µM).

With `CCN(C)/C=N/c1cc(C)c(Cc2nc(C(=O)NC(C)(C)C(F)(F)F)cs2)cc1C` [Example 109, 2-[4-({(E)-[Ethyl(methyl)amino]methylidene}amino)-2,5-dimethylbenzyl]-N-(1,1,1-trifluoro-2-methylpropan-2-yl)-1,3-thiazole-4-carboxamide hydrochloride] as the compound, how does the MIC [1, 4] read?
The MIC was 0.0039 µg/mL.

With `CCN(C)/C=N/c1cc(C)c(Cc2nc(-c3ccc(C(=O)OC)cc3)cs2)cc1C` [Example 14, Methyl 4-{2-[4-({(E)-[ethyl(methyl)amino]methylidene}amino)-2,5-dimethylbenzyl]-1,3-thiazol-4-yl}benzoate dihydrochloride] as the compound, how does the MIC [2, 5] read?
Its MIC is 0.0625 µg/mL.

`CCN(C)/C=N/c1ccc(Cc2nc(-c3ccc(Cl)cc3)cs2)cc1` [Example 51, N′-(4-{[4-(4-Chlorophenyl)-1,3-thiazol-2-yl]methyl}phenyl)-N-ethyl-N-methylimidoformamide hydrochloride] was tested. Which MIC [1, 4] did it give?
The MIC was 0.25 µg/mL.

`CCN(C)/C=N/c1cc(C)c(Cc2nc(C(=O)NCc3ccccc3)cs2)cc1C` [Example 44, N-Benzyl-2-[4-({(E)-[ethyl(methyl)amino]methylidene}amino)-2,5-dimethylbenzyl]-1,3-thiazole-4-carboxamide dihydrochloride] was tested. Which MIC [1, 4] did it give?
Its MIC is 0.0625 µg/mL.
